Source: ChEMBL document CHEMBL1773070, “Benzophenone-based derivatives: a novel series of potent and selective dual inhibitors of acetylcholinesterase and acetylcholinesterase-induced beta-amyloid aggregation” (Eur J Med Chem, 2011)

Columns and labels:
Cholinesterase = Cholinesterase (Homo sapiens, UniProt P06276); assay: Inhibition of human BChE using butyrylthiocholine iodide as substrate by Ellman's method
Acetylcholinesterase = Acetylcholinesterase (Homo sapiens, UniProt P22303); assay: Inhibition of human AChE using acetylthiocholine iodide as substrate by Ellman's assay
Sequence of Acetylcholinesterase (P22303 whole entry): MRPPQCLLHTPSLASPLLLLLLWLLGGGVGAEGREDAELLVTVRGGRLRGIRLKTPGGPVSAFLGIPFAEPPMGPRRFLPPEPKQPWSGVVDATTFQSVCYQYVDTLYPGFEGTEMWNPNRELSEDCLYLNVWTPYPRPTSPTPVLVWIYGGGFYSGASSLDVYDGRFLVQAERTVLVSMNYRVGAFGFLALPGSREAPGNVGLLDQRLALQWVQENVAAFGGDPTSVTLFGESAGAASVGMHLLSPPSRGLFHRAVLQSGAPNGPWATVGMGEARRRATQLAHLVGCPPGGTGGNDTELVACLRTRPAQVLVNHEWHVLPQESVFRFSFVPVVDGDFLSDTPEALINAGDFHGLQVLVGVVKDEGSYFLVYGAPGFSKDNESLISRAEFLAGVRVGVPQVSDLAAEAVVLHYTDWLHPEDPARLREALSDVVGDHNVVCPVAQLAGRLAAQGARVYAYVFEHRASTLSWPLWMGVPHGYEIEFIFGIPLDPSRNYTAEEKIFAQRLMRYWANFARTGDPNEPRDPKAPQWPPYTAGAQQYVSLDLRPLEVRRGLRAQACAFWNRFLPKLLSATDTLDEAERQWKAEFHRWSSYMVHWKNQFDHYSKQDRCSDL

Sequence of Cholinesterase (P06276 whole entry): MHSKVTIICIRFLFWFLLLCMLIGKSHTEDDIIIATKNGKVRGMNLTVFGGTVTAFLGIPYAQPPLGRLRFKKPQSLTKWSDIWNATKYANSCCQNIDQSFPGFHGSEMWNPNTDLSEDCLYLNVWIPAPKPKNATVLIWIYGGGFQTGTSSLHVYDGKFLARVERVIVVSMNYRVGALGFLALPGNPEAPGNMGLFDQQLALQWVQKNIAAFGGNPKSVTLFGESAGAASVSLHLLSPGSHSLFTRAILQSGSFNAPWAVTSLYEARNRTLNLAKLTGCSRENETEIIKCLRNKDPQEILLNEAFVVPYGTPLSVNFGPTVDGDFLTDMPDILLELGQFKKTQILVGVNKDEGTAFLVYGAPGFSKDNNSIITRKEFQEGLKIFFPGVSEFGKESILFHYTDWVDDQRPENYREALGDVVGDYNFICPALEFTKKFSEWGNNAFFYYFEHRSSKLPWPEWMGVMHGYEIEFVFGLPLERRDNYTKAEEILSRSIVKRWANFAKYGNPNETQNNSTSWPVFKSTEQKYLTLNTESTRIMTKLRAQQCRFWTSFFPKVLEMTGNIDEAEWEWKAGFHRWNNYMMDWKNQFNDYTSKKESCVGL

Q: `CN(Cc1ccccc1)Cc1ccc(C(=O)c2ccc(NC(=O)CN3CCCCC3)cc2)cc1` was tested. Which IC50 (Cholinesterase) did it give?
A: Its IC50 is 145 µM.

Q: And the IC50 (Acetylcholinesterase)?
A: Its IC50 is 0.55 µM.

Q: `CN(Cc1ccccc1)Cc1ccc(C(=O)c2ccc(OCCCCCCN3CCCCC3)cc2)cc1` was tested. Which IC50 (Cholinesterase) did it give?
A: The IC50 was 9.7 µM.

Q: What about the IC50 (Acetylcholinesterase) of the same compound?
A: The IC50 was 0.21 µM.

Q: For `CN(Cc1ccccc1)Cc1ccc(C(=O)c2ccc(OCCCCCN3CCCCC3)cc2)cc1`, which IC50 (Cholinesterase) is on record?
A: The IC50 was 10.4 µM.

Q: And the IC50 (Acetylcholinesterase)?
A: The IC50 was 0.143 µM.

Q: Which results are given for `CCN(CC)CCc1ccc(Oc2ccc(C(=O)c3ccc(CN(C)Cc4ccccc4)cc3)cc2)cc1`?
A: IC50 (Cholinesterase): 209 µM; IC50 (Acetylcholinesterase): 0.13 µM

Q: Which results are given for `CCN(CC)CCCOc1ccc(C(=O)c2ccc(CN(C)Cc3ccccc3)cc2)cc1`?
A: IC50 (Cholinesterase): 35 µM; IC50 (Acetylcholinesterase): 0.025 µM

Q: With `CCN(CC)CCCCCOc1ccc(C(=O)c2ccc(CN(C)Cc3ccccc3)cc2)cc1` as the compound, how does the IC50 (Cholinesterase) read?
A: Its IC50 is 34 µM.

Q: What about the IC50 (Acetylcholinesterase) of the same compound?
A: Its IC50 is 0.144 µM.

Q: For `CN(Cc1ccccc1)Cc1ccc(C(=O)c2ccc(OCCCN3CCOCC3)cc2)cc1`, which IC50 (Cholinesterase) is on record?
A: The IC50 was 21 µM.

Q: What about the IC50 (Acetylcholinesterase) of the same compound?
A: The IC50 was 0.107 µM.

Q: With `CN(Cc1ccccc1)Cc1ccc(C(=O)c2ccc(NC(=O)CCCCN3CCCCC3)cc2)cc1` as the compound, how does the IC50 (Cholinesterase) read?
A: The IC50 was 68 µM.

Q: And the IC50 (Acetylcholinesterase)?
A: Its IC50 is 0.217 µM.

Q: `COc1ccc(C(=O)c2ccc(CN(C)Cc3ccccc3)cc2)cc1` was tested. Which IC50 (Cholinesterase) did it give?
A: The IC50 was > 10 µM.

Q: Which results are given for `CCN(CC)CC(=O)Nc1ccc(C(=O)c2ccc(CN(C)Cc3ccccc3)cc2)cc1`?
A: IC50 (Cholinesterase): 144 µM; IC50 (Acetylcholinesterase): 0.21 µM

Q: What does the source list for `CCN(CC)CCCCCCCOc1ccc(C(=O)c2ccc(CN(C)Cc3ccccc3)cc2)cc1`?
A: IC50 (Cholinesterase): 23 µM; IC50 (Acetylcholinesterase): 0.81 µM

Q: `CN(Cc1ccccc1)Cc1ccc(C(=O)c2ccc(OCCCN3CCCCC3)cc2)cc1` was tested. Which IC50 (Cholinesterase) did it give?
A: Its IC50 is 11 µM.

Q: And the IC50 (Acetylcholinesterase)?
A: Its IC50 is 0.024 µM.

Q: For `CN(Cc1ccccc1)Cc1ccc(C(=O)c2ccc(OCCCN3CCC(n4c(=O)[nH]c5ccccc54)CC3)cc2)cc1`, which IC50 (Cholinesterase) is on record?
A: Its IC50 is 39 µM.

Q: What about the IC50 (Acetylcholinesterase) of the same compound?
A: The IC50 was 0.068 µM.

Q: `CN(Cc1ccccc1)Cc1ccc(C(=O)c2ccc(NC(=O)CN3CCOCC3)cc2)cc1` was tested. Which IC50 (Cholinesterase) did it give?
A: Its IC50 is 179 µM.

Q: What about the IC50 (Acetylcholinesterase) of the same compound?
A: The IC50 was 0.72 µM.

Q: What does the source list for `CN(Cc1ccccc1)Cc1ccc(C(=O)c2ccc(OCCCCCCCN3CCCCC3)cc2)cc1`?
A: IC50 (Cholinesterase): 24.2 µM; IC50 (Acetylcholinesterase): 0.11 µM

Q: Which results are given for `CCN(CC)CCCCCCOc1ccc(C(=O)c2ccc(CN(C)Cc3ccccc3)cc2)cc1`?
A: IC50 (Cholinesterase): 21.9 µM; IC50 (Acetylcholinesterase): 0.257 µM
